Measurements from PubChem BioAssay (NCI).
“And” between values parts separate entries of the source, which are not always exact repeats. Equal entries are not always repeated.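 Assay format: 96-well plates, 48-hour exposure. GI50: concentration for 50% inhibition of growth. TGI: total growth inhibition.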

Experiments:
Experiment in all cases: inhibition of tumour cell growth, NCI panel, 48 h
SK-MEL-2 melanoma = test system: SK-MEL-2 melanoma
UACC-62 melanoma = test system: UACC-62 melanoma
SF-295 CNS = test system: SF-295 CNS
SN12C renal = test system: SN12C renal
K-562 leukemia = test system: K-562 leukemia
HCT-15 colon = test system: HCT-15 colon
ACHN renal = test system: ACHN renal
SW-620 colon = test system: SW-620 colon
MDA-MB-435 = test system: MDA-MB-435
MDA-MB-231 breast = test system: MDA-MB-231 breast

| SMILES | TGI (SK-MEL-2 melanoma) [µM] | TGI (UACC-62 melanoma) | TGI (SF-295 CNS) [µM] | TGI (SN12C renal) [µM] | TGI (K-562 leukemia) [µM] | TGI (HCT-15 colon) | TGI (ACHN renal) [µM] | TGI (SW-620 colon) [µM] | TGI (MDA-MB-435) [µM] | TGI (MDA-MB-231 breast) | GI50 (MDA-MB-435) | GI50 (UACC-62 melanoma) [µM] | GI50 (SF-295 CNS) [µM] | GI50 (SN12C renal) [µM] | GI50 (MDA-MB-231 breast) | GI50 (K-562 leukemia) [µM] | GI50 (HCT-15 colon) [µM] | GI50 (ACHN renal) [µM] | GI50 (SW-620 colon) [µM] | GI50 (SK-MEL-2 melanoma) [µM] |
| --- | --- | --- | --- | --- | --- | --- | --- | --- | --- | --- | --- | --- | --- | --- | --- | --- | --- | --- | --- | --- |
| FC(F)(F)c1nc(-c2ccccc2)oc1Sc1nnc(Sc2oc(-c3ccccc3)nc2C(F)(F)F)s1 | > 100 | > 65.8 µM | > 100 | > 100 | > 64.5 | > 59 µM | > 100 | > 100 |  |  |  |  |  |  |  |  |  |  |  |  |
| CN1C(=O)c2ccccc2NC(=O)C12O[C@@H]2c1cccc(O)c1 (stereo partly drawn) | > 100 | > 100 µM | > 100 | > 100 |  | > 100 µM | > 100 | > 100 | > 100 | > 100 µM |  |  |  |  |  |  |  |  |  |  |
| N#CCc1ccc(C(C#N)/C(CCCC(=O)Nc2cccc([N+](=O)[O-])c2)=N/NC(N)=S)cc1 (stereo not drawn) | > 100 | > 100 µM | > 100 | > 100 | > 100 | > 100 µM | > 100 | > 100 |  |  |  |  |  |  |  |  |  |  |  |  |
| O=C(/C(=C/c1cccc([N+](=O)[O-])c1)c1ccccc1)c1ccccc1 |  | 12.1 µM | 20.2 | 79.8 | 15.7 | 16.5 µM | 5.41 | 9.19 | 4.43 | > 100 µM | 1.96 µM | 2.8 | 4.08 | 3.54 | 4.01 µM | 3.27 | 2.75 | 2.3 | 3.1 |  |
| COc1ccc(/C=C\c2cc(OC)c(OC)c(OC)c2)cc1OC(=O)NCCN(C)C |  | > 25.7 µM |  |  | 23.7 |  | > 41.7 |  | < 0.0001 | 0.023 µM |  |  |  |  |  |  |  |  |  |  |
| CC1=N/C(=C\c2cccc([N+](=O)[O-])c2)C(=O)O1 | > 100 | > 100 µM | > 100 | > 100 | > 100 | > 100 µM | > 100 | > 100 |  |  |  |  |  |  |  |  |  |  |  |  |
| COc1ccc(/C(Cl)=C(\C=O)c2ccc([N+](=O)[O-])cc2)cc1 | 41.3 | 33.1 µM | 34.6 | 49.1 | > 37.5 | > 70.3 µM | 70.5 | > 49.1 |  |  |  |  |  |  |  |  |  |  |  |  |
| CC(C)c1ccc(C(c2ccc(OCC(=O)O)cc2)c2ccc(C(C)C)cc(=O)c2O)c(O)c(=O)c1 |  | 20.7 µM | 55.1 | 24.3 | 35.5 | 22.9 µM | 28 | > 100 |  |  |  |  |  |  |  |  |  |  |  |  |
| N.N.O=C([O-])P(=O)([O-])[O-].[Na+].[Pt+4] | > 100 | > 100 µM | > 100 | > 100 | > 100 | > 100 µM | > 100 | > 100 |  |  |  | > 100 | > 100 | > 100 |  | > 100 | > 100 | > 100 | > 100 | > 100 |
| CCOC(=O)CCn1[nH]c(=O)c(Cl)c(Cl)c1=O | > 100 | > 100 µM | > 100 | > 100 | > 100 | > 100 µM | > 100 | > 100 |  |  |  |  |  |  |  |  |  |  |  |  |
| CCc1ccc(Nc2ccc([N+](=O)[O-])cc2[N+](=O)[O-])cc1 | > 100 | > 100 µM | > 100 |  | > 100 | > 100 µM | > 100 | > 100 |  |  |  |  |  |  |  |  |  |  |  |  |
| COc1ccc(CNc2nc3cc(C(F)(F)F)ccc3nc2C)cc1OC | 70.1 | > 100 µM | > 100 | > 100 | > 100 | > 100 µM |  | > 100 |  |  |  |  |  |  |  |  |  |  |  |  |
| COc1ccc2c3c(coc13)C(CCC(=O)O)CC2 (stereo not drawn) |  | > 100 µM | > 100 | > 100 |  | > 100 µM | > 100 | > 100 |  |  |  |  |  |  |  |  |  |  |  |  |
| C=C[C@H]1C[C@@H]2C[C@@H]3[C@H]4C/C=C\C(=O)NCCCC5NC(=O)C(=C(O)/C=C/[C@@H]4CC(=O)[C@H]3[C@@H]2[C@H]1C)C5=O (stereo partly drawn) | 2.58 | 2.88 µM |  | 0.342 |  | 0.949 µM | 0.343 | 3.13 | 0.408 | 0.537 µM | 0.203 µM | 1.45 |  | 0.182 | 0.232 µM |  | 0.294 | 0.18 | 1.66 | 1.08 |
| COc1cc2c(c(OC)c1)C1(CC(CC#N)C2)SCCS1 (stereo not drawn) | > 100 | > 100 µM |  | > 100 | > 100 | > 100 µM | > 100 | > 100 |  |  |  |  |  |  |  |  |  |  |  |  |
| COC1=CC2(C=CC1=O)c1cc(OC)c(OC)cc1CCN2C(=O)c1ccccc1 (stereo not drawn) |  | > 100 µM | > 100 | > 100 | > 100 | > 100 µM | > 100 | > 100 |  |  |  |  |  |  |  |  |  |  |  |  |
| O=C(/C=C/c1c(O)ccc2ccccc12)c1ccccc1 | > 100 | > 100 µM | > 100 | > 100 | > 100 | > 100 µM | > 100 | 83.7 |  |  |  |  |  |  |  |  |  |  |  |  |
| COC(C(O)c1ccc2c(c1)OCO2)P(=O)(c1ccccc1)c1ccccc1 (stereo not drawn) | > 100 | > 100 µM |  | > 100 | > 100 |  | > 100 | > 100 |  |  |  |  |  |  |  |  |  |  |  |  |
| Cc1ccc(-c2cc(=O)c3cc(C)c(C)c(C(=O)O)c3o2)cc1C | > 100 | > 100 µM | > 100 | > 100 | > 100 | > 100 µM | > 100 | > 100 |  |  |  |  |  |  |  |  |  |  |  |  |
| CC[CH2][Sn]([Cl])([Cl])[CH2]CC.Oc1ccccc1C=NCCN=Cc1ccccc1O |  | 19.6 µM | 32.7 | 23.8 | > 100 | 24.8 µM | 21.8 | 3.82 | 24.7 | 15.8 µM | 7.3 µM | 5.77 | 14.7 | 11.3 | 3.96 µM | 2.53 | 9.63 | 10.1 | 1.8 |  |
| NCCCn1c2c(c3ccc([N+](=O)[O-])cc3c1=O)C(=O)c1cc(Br)ccc1-2 |  | 0.0488 µM and 0.0256 µM |  | 0.0566 | 0.264 | 0.155 µM and 0.0641 µM | 0.0477 | 0.132 | 1.36 | 0.218 µM and 0.103 µM | 0.267 µM and 0.162 µM | 0.0195 | 0.163 | 0.0154 | 0.0364 µM and 0.0168 µM | 0.00813 | 0.035 | 0.0187 | 0.00106 |  |
| Fc1ccc(C2SCc3nc4ccccc4n32)cc1Cl (stereo not drawn) |  | 25.6 µM | 98.1 | 35.7 | 55.9 |  | > 100 | > 100 |  |  |  |  |  |  |  |  |  |  |  |  |
